This assay deals with T1, AiiE.
T1 construct: full-length ORF (ca. 750 bp) in pET-19m, E. coli Rosetta DE3; His6 tag cut off by TEV; 240B1
Put plainly: phenol red proton-release assay (A557), Lineweaver-Burk. The note with it: 1 mM HEPES, 200 mM NaCl, 50 uM phenol red, pH 7.5. It counts as biochemical, Enterobacter sp. CS66. An excerpt:
phenol red proton-release assay (A557), Lineweaver-Burk on AiiE

Data on 5 compounds can be found in paper PMC5905603, “Purification and characterisation of a quorum quenching AHL-lactonase from the endophytic bacterium Enterobacter sp. CS66” (FEMS Microbiology Letters, 2018).

By Km is commonly meant the concentration of substrate that gives half-maximal velocity.

On to `CCCC(=O)N[C@H]1CCOC1=O` [C4-HSL], for which the Km stood at 6.01 mM.

`CCCCCCCC(=O)N[C@H]1CCOC1=O` [C8-HSL]: the Km was 10.3 mM.

On to `CCCCCCCCCCCC(=O)N[C@H]1CCOC1=O` [C12-HSL], for which the Km was 15.2 mM.

Take `CCCCCCCCCC(=O)N[C@H]1CCOC1=O` [C10-HSL]: the Km worked out at 14.9 mM.

Consider `CCCCCC(=O)N[C@H]1CCOC1=O` [C6-HSL], for which the Km is 7.88 mM.
